Where a name gives a salt, the structure may show the parent alone.
What was measured:
serotonin transporter = target: T1, serotonin transporter (Rattus norvegicus, UniProt P31652); assay: Displacement of 3H-paroxetine from male rat frontal cortical membranes (serotonin transporter affinity); type: binding; conditions: 3H-paroxetine displacement, read-out: 5-HT Transporter Affinity Ki
T1 construct: displace ^3H-paroxetine from male rat frontal cortical membranes; from tissue; host or cells: male rat frontal cortex membranes
T1 sequence (P31652 whole entry): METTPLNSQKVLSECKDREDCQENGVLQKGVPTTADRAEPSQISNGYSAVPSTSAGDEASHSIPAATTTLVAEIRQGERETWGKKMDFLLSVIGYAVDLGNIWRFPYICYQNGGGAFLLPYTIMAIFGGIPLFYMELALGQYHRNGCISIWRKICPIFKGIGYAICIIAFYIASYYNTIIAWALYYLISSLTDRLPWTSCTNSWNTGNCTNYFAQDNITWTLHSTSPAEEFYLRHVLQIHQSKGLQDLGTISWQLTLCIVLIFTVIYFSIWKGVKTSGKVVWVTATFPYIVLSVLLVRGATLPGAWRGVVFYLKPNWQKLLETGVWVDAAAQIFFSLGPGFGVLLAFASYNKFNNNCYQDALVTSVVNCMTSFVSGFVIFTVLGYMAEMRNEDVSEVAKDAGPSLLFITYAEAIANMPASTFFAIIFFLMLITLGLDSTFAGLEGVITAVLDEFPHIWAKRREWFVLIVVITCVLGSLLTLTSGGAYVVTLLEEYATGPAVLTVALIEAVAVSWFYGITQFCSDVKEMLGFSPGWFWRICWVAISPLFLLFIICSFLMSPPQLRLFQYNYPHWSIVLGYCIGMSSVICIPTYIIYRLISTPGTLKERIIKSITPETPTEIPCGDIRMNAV
From the text: Affinity of Compounds of the Invention for the Serotonin Transporter

human 5HT1A receptors = target: T2, human 5HT1A receptors (Homo sapiens, UniProt P08908); assay: Displacement of [3H] 8-OH-DPAT from 5HT1A receptor, CHO cells stably transfected with human 5HT1A receptors; type: binding; conditions: [3H] 8-OH-DPAT displacement, CHO cells with human 5HT1A; read-out: 5HT1A Receptor Affinity Ki
T2 construct: expressed in transfected cells; host or cells: CHO cells
T2 sequence (P08908 1-422): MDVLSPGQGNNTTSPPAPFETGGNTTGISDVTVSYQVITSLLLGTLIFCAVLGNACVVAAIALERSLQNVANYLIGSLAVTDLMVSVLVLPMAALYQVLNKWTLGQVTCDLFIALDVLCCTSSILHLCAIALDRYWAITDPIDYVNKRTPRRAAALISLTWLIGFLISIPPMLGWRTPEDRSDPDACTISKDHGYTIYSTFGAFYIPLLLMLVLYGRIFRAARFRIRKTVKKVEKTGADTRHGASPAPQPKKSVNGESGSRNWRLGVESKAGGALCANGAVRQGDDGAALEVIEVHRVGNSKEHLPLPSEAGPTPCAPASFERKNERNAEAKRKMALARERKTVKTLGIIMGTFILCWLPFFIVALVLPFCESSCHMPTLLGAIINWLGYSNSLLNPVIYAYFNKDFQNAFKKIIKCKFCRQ
From the text: High affinity for the serotonin 5HT1A receptor was established by testing the claimed compound's ability to displace [^3H] 8-OH-DPAT (dipropylamino-tetralin) from the 5HT1A serotonin receptor following a modification of the procedure of Hall et al., J. Neurochem. 44, 1685 (1985) which utilizes CHO cells stably transfected with human 5HT1A receptors.

Compound	Ki (serotonin transporter) [nM]	Ki (human 5HT1A receptors) [nM]
Cc1ccc2c3c(ccc2n1)OC[C@H](CN1CCCC(Cc2ccc4c(c2)NC(=O)CO4)C1)O3 (stereo partly drawn) [Example 16, 6-[(1-{[(2S)-8-Methyl-2,3-dihydro[1,4]dioxino[2,3-f]quinolin-2-yl]methyl}piperidin-3-yl)methyl]-2H-1,4-benzoxazin-3(4H)-one dihydrochloride salt]	5	0.4
Cc1ccc2c3c(ccc2n1)OC[C@H](CNCCCCOc1ccc2c(c1)NC(=O)CO2)O3 [Example 6, 6-[4-({[(2S)-8-Methyl-2,3-dihydro[1,4]dioxino[2,3-f]quinolin-2-yl]methyl}amino)butoxy]-2H-1,4-benzoxazin-3(4H)-one dihydrochloride salt]	11.9	0.25
Cc1ccc2c3c(ccc2n1)OC[C@H](CN1CCC(Oc2ccc4c(c2)N(C)C(=O)CO4)CC1)O3 [Example 5, 4-Methyl-6-[(1-{[(2S)-8-methyl-2,3-dihydro[1,4]dioxino[2,3-f]quinolin-2-yl]methyl}piperidin-4-yl)oxy]-2H-1,4-benzoxazin-3(4H)-one dihydrochloride salt]	11	0.54
Cc1ccc2c3c(ccc2n1)OC[C@H](CN1CCC(CCc2ccc4c(c2)N(C)C(=O)CO4)CC1)O3 [Example 13, 4-Methyl-6-[2-(1-{[(2S)-8-methyl-2,3-dihydro[1,4]dioxino[2,3-f]quinolin-2-yl]methyl}piperidin-4-yl)ethyl]-2H-1,4-benzoxazin-3(4H)-one dihydrochloride salt]	13.9	0.63
Cc1ccc2c3c(ccc2n1)OC[C@H](CN1CCC(CCc2ccc4c(c2)NC(=O)CO4)CC1)O3 [Example 14, 6-[2-(1-{[(2S)-8-Methyl-2,3-dihydro[1,4]dioxino[2,3-f]quinolin-2-yl]methyl}piperidin-4-yl)ethyl]-2H-1,4-benzoxazin-3(4H)-one dihydrochloride salt]	2.66	0.59
Cc1ccc2c3c(ccc2n1)OC[C@H](CN1CCC(Cc2ccc4c(c2)N(C)C(=O)CO4)CC1)O3 [Example 12, 4-Methyl-6-[(1-{[(2S)-8-methyl-2,3-dihydro[1,4]dioxino[2,3-f]quinolin-2-yl]methyl}piperidin-4-yl)methyl]-2H-1,4-benzoxazin-3(4H)-one dihydrochloride salt]	6.65	0.29
